Data set [1] relates to TK-10. As to the kind of experiment: Cytotoxicity against human TK-10 cells by sulforhodamine B staining based spectrophotometric analysis. In kind it is functional, cell-based. On the technique in general: The SRB assay estimates cell density from bound dye.
For data set [2], the system named is UACC-62. As to the kind of experiment: Cytotoxicity against human UACC-62 cells by sulforhodamine B staining based spectrophotometric analysis. In kind it is functional, cell-based.
Data set [3] deals with MCF7. As to the kind of experiment: Cytotoxicity against human MCF7 cells by sulforhodamine B staining based spectrophotometric analysis. It is filed as functional, cell-based.
In data set [4] the test system is PC-3. As to the kind of experiment: Cytotoxicity against human PC-3 cells by sulforhodamine B staining based spectrophotometric analysis. In kind it is functional, cell-based.
The subject of data set [5] is HepG2. As to the kind of experiment: Cytotoxicity against human HepG2 cells by sulforhodamine B staining based spectrophotometric analysis. In kind it is functional, cell-based.
Data set [6] has as its system HeLa. As to the kind of experiment: Cytotoxicity against human HeLa cells by sulforhodamine B staining based spectrophotometric analysis. It is filed as functional, cell-based.
Data set [7] concerns OVCAR-5. As to the kind of experiment: Cytotoxicity against human OVCAR-5 cells assessed as reduction in cell growth incubated for 24 hrs by DAPI staining based fluorescence imaging analysis. It is filed as functional. The following applies: OVCAR-5, 24 h.
Data set [8] concerns SK-OV-3. As to the kind of experiment: Cytotoxicity against human SK-OV-3 cells assessed as reduction in cell growth incubated for 24 hrs by DAPI staining based fluorescence imaging analysis. In kind it is functional. Particulars: SK-OV-3, 24 h.
The nature of data set [9]: Antiproliferative activity against human A875 cells assessed as inhibition of cell growth incubated for 24 hrs by MTT reagent based microplate reader assay. In kind it is functional. Particulars: A875, 24 h. Background: Formazan colour is commonly taken as a measure of viable cells.
Data set [10] has as its system N2a. As to the kind of experiment: Cytotoxicity against mouse Neuro2a cells incubated for 24 hrs by MTT reagent based microplate reader analysis. It is filed as functional, cell-based.
Data set [11] concerns HeLa. As to the kind of experiment: Cytotoxicity against human HeLa cells incubated for 24 hrs by MTT reagent based microplate reader analysis. It is filed as functional, cell-based.
Data set [12] in a line: Cytotoxicity against mouse JB6 Cl 41-5a cells incubated for 24 hrs by MTT reagent based microplate reader analysis. It is filed as toxicity, cell-based.
In data set [13] the test system is HL-60. As to the kind of experiment: Cytotoxicity against human HL-60 cells incubated for 72 hrs by MTT reagent based spectrophotometric analysis. In kind it is functional, cell-based. The following applies: HL-60, 72 h.
The subject of data set [14] is A549. As to the kind of experiment: Cytotoxicity against human A549 cells incubated for 72 hrs by MTT reagent based spectrophotometric analysis. In kind it is functional, cell-based. The following applies: A549, 72 h.
Data set [15] deals with A2780. As to the kind of experiment: Cytotoxicity against human A2780 cells incubated for 72 hrs by MTT reagent based spectrophotometric analysis. In kind it is functional, cell-based. The following applies: A2780, 72 h.
Data set [16] relates to PC-3. As to the kind of experiment: Cytotoxicity against human PC-3 cells incubated for 72 hrs by MTT reagent based spectrophotometric analysis. It is filed as functional, cell-based. The following applies: PC-3, 72 h.
Data set [17] has as its system RPMI-8226. As to the kind of experiment: Cytotoxicity against human RPMI-8226 cells assessed as inhibition of cell growth incubated for 72 hrs by MTT reagent based colorimetric assay. In kind it is functional. Particulars: RPMI-8226, 72 h.
Data set [18] deals with MCF7. As to the kind of experiment: Cytotoxicity against human MCF7 cells assessed as inhibition of cell growth incubated for 72 hrs by MTT reagent based colorimetric assay. In kind it is functional. The following applies: MCF7, 72 h.
In data set [19] the test system is HepG2. As to the kind of experiment: Cytotoxicity against human HepG2 cells assessed as inhibition of cell growth incubated for 72 hrs by MTT reagent based colorimetric assay. It is filed as functional. Particulars: HepG2, 72 h.
The test system of data set [20] is KATO III stomach cancer cell line. As to the kind of experiment: Antiproliferative activity against human KATO III stomach cancer cell line assessed as inhibition of cell growth incubated for 72 hrs by MTS assay. In kind it is functional, cell-based.
The subject of data set [21] is MCF7. As to the kind of experiment: Antiproliferative activity against human MCF7 cells assessed as inhibition of cell growth incubated for 72 hrs by MTS assay. In kind it is functional, cell-based. The following applies: MCF7, 72 h.
The subject of data set [22] is Glioblastoma cell line. As to the kind of experiment: Antiproliferative activity against human Glioblastoma cell line assessed as reduction in cell growth incubated for 24 hrs by MTT assay. In kind it is functional, cell-based.
For data set [23], the system named is A549. As to the kind of experiment: Antiproliferative activity against human A549 cells assessed as reduction in cell growth incubated for 24 hrs by MTT assay. In kind it is functional, cell-based. The following applies: A549, 24 h.
Data set [24] has as its system HeLa. As to the kind of experiment: Antiproliferative activity against human HeLa cells assessed as reduction in cell growth incubated for 24 hrs by MTT assay. It is filed as functional, cell-based.
Data set [25] in a line: Antiproliferative activity against human SK-RC-45 cells assessed as reduction in cell growth incubated for 24 hrs by MTT assay. In kind it is functional, cell-based. The following applies: SK-RC-45, 24 h.
The subject of data set [26] is A498. As to the kind of experiment: Antiproliferative activity against human A498 cells assessed as reduction in cell growth incubated for 24 hrs by MTT assay. In kind it is functional, cell-based. Particulars: A498, 24 h.
For data set [27], the system named is MCF7. As to the kind of experiment: Antiproliferative activity against human MCF7 cells assessed as reduction in cell growth incubated for 48 hrs by MTT reagent based microplate reader assay. Particulars: MCF7, 48 h. In kind it is functional.
The subject of data set [28] is LNCaP. As to the kind of experiment: Antiproliferative activity against human LNCaP cells assessed as reduction in cell growth incubated for 48 hrs by MTT reagent based microplate reader assay. It is filed as functional.
In data set [29] the test system is HepG2. As to the kind of experiment: Antiproliferative activity against human HepG2 cells assessed as reduction in cell growth incubated for 48 hrs by MTT reagent based microplate reader assay. The following applies: HepG2, 48 h. In kind it is functional.
Data set [30] deals with A549. As to the kind of experiment: Antiproliferative activity against human A549 cells assessed as reduction in cell growth incubated for 48 hrs by MTT reagent based microplate reader assay. In kind it is functional. Particulars: A549, 48 h.
The test system of data set [31] is SK-OV-3. As to the kind of experiment: Antiproliferative activity against human SK-OV-3 cells assessed as reduction in cell growth incubated for 48 hrs by MTT reagent based microplate reader assay. Particulars: SK-OV-3, 48 h. In kind it is functional.
The test system of data set [32] is HeLa. As to the kind of experiment: Cytotoxicity against human HeLa cells incubated for 48 hrs by MTT reagent based spectrophotometric analysis. It is filed as functional, cell-based.
Data set [33] deals with Jurkat. As to the kind of experiment: Cytotoxicity against human Jurkat cells incubated for 48 hrs by MTT reagent based spectrophotometric analysis. In kind it is functional, cell-based.
Data set [34] can be described thus: Antiproliferative activity against human TT cells assessed as inhibition of cell growth incubated for 72 hrs by WST-1 assay. It is filed as functional, cell-based.
In data set [35] the test system is U-937. As to the kind of experiment: Cytotoxicity against human U-937 cells assessed as reduction in cell viability incubated for 72 hrs by resazurin assay. It is filed as functional, cell-based. The following applies: U-937, 72 h. A general note: The colour change of resazurin is a common sign of viable cells or microbes.

This is an account of results in ChEMBL document CHEMBL5512632, “Unlocking the potential of 1,4-naphthoquinones: A comprehensive review of their anticancer properties” (Eur J Med Chem, 2024).

Usually IC50 stands for the concentration needed to halve the response being measured. Regarding `O=C1C(CSc2ccc(F)cc2)=C(C2=C(CSc3ccc(F)cc3)C(=O)c3ccccc3C2=O)C(=O)c2ccccc21`, the IC50 in data set [1] is 3.77 µM; in data set [2], 2980 nM; in [3], 3.24 µM; in [4], 6.98 µM; in data set [5], 8.75 µM; in data set [6] it was 31.5 µM.

Consider `COc1cc(/C=C/C(=O)/C=C(O)/C=C/c2ccc(OC3=CC(=O)c4ccccc4C3=O)c(OC)c2)ccc1OC1=CC(=O)c2ccccc2C1=O`, for which the half-maximal inhibitory concentration (IC50) turned out to be 4.05 µM in data set [7] and 5.35 µM in data set [8].

For the compound `CC(C)=CC[C@@H](OC(=O)CCc1cc2ccccc2[nH]1)C1=CC(=O)c2c(O)ccc(O)c2C1=O`, in data set [9], the half-maximal inhibitory concentration (IC50) was 5 nM.

Turning to `O=C1C2=C(O[C@@H]3[C@@H](O)[C@@H](O)CO[C@H]3S2)C(=O)c2c(O)cccc21`, the IC50 in [10] is 1400 nM; in data set [11] it was 400 nM. This compound also showed an IC50 at 24 h in data set [12] of 700 nM.

For `O=C1C=C(C(O)C[N+](=O)[O-])C(=O)c2c(O)ccc(O)c21` (stereo not given), the half-maximal inhibitory concentration (IC50) in [13] came out at 140 nM; in [14], 1050 nM; in data set [15], 110 nM; in data set [16], 90 nM.

As to `C[P+](C1=C([O-])C(=O)c2c(F)c(F)c(F)c(F)c2C1=O)(c1ccccc1)c1cc(F)cc(F)c1` (stereo not given), the IC50 in data set [17] was 6.4 µM; in [18], 4.6 µM; in data set [19], 7.1 µM.

Regarding `CC(C)=CCCc1ccc2c(c1)C(=O)c1c(cnn1CCO)C2=O`, the IC50 came to 25.5 µM in data set [20] and 27.5 µM in data set [21].

For `O=C1C(O)=C(C(C2=C(O)C(=O)c3ccccc3C2=O)c2ccc(C(F)(F)F)cc2)C(=O)c2ccccc21`, the concentration for half-maximal inhibition (IC50) in data set [22] came out at 17.2 µM; in [23] it was 29.6 µM; in data set [24], 34.3 µM; in data set [25] it was 30.3 µM; in data set [26], 27.5 µM.

`CC1=C(C2CC(=O)N(C)C2=O)C(=O)c2c(O)cccc2C1=O` (stereo not given): the IC50 is 4.91 µM in data set [27]; 3.62 µM in data set [28]; 7.13 µM in data set [29]; 6.11 µM in data set [30]; 12.2 µM in data set [31].

Regarding `COc1ccc(NC2=CC(=O)c3cc4c(cc3C2=O)CCCC4(C)C)cc1`, the IC50 was 10 nM in data set [32] and 1400 nM in data set [33].

As to `CC(C)=CC[C@@H](OC(=O)C=C(C)C)C1=CC(=O)c2c(O)ccc(O)c2C1=O` [DIMETHYLACRYLSHIKONIN], the half-maximal inhibitory concentration (IC50) in data set [34] is 1200 nM.

Regarding `CC(C)=CC[C@@H](OC(=O)C(C)C)C1=CC(=O)c2c(O)ccc(O)c2C1=O` [ISOBUTYLSHIKONIN], the concentration for half-maximal inhibition (IC50) in [35] stood at 50 nM.
